# Test results as given in patent publication US12447242B2, “Hemostatic devices and methods of use” (MEDTRONIC INC., priority 2016, dated 2025).
# Legend:
# blood [1] = experiment: time to induce blood clotting in vitro in the presence of TYRX (Example 17); format: biochemical; design: dose or concentration left out as unconfirmed; conditions: higher amounts of TXA
# Experimental: Tests were conducted to compare the time required to induce blood clotting in vitro when different amounts of hemostatic agent is administered in the presence of TYRX (degradable mesh coated with P22-27.5 containing rifampin and minocycline), as shown in FIG. 24.
# blood [2] = experiment: time to induce blood clotting in vitro, different hemostatic agents (Example 18); format: biochemical; conditions: 1.2 mg of TXA alone
# Experimental: Tests were conducted to compare the time required for different hemostatic agents to induce blood clotting in vitro versus the time required to induce blood clotting in vitro when no hemostatic agent is administered. In particular, the time required to induce blood clotting was plotted for blood alone, TYRX, Surgicel, TYRX with 1.6 mg of TXA, 1.2 mg of TXA alone, and TYRX with 200 mg of TXA. In this example, TYRX refers to a Glycoprene mesh that is coated with P22-27.5 (a polymer in the P22-X family) containing Rifampin and Minocycline.
# [3] = time to reach plasma concentrations; format: in vivo; conditions: given preoperatively
# [4] = stability of rifampin and minocycline in PBS with and without tranexamic acid (Example 14); format: physicochemical
# [5] = in vitro elution of rifampin and minocycline from p22-27.5 polymers with TXA in release media (Example 15); format: physicochemical; conditions: PBS pH 7.4 without or with TXA (0.05 mg/mL, 5 mg/mL) in the release media, over 25 hours
# myofibroblast formation = conditions: Ajmal et al. (2003); cited from earlier work
structure (smiles),measurement,setting,value
NC[C@H]1CC[C@H](C(=O)O)CC1 [tranexamic acid],clotting time,blood [1],increased
same,time to induce blood clotting in vitro,blood [2],about 19 minutes
same,time to reach plasma concentrations,[3],5 to 15 min
same,effect on the stability of rifampin and minocycline,"[4]; PBS, RT and 37° C.",does not negatively affect
CO[C@H]1/C=C/O[C@@]2(C)Oc3c(C)c(O)c4c(O)c(c(/C=N/N5CCN(C)CC5)c(O)c4c3C2=O)NC(=O)/C(C)=C\C=C\[C@H](C)[C@H](O)[C@@H](C)[C@@H](O)[C@@H](C)[C@H](OC(C)=O)[C@@H]1C [rifampin],elution rate from p22-27.5 polymers,[5],not affected
same,"percentage area of rifampin, mixtures with versus without tranexamic acid","[4]; rifampin and minocycline in PBS, regardless of the temperature (RT or 37° C.)",substantially the same
"O=S(=O)([O-])CCS.[Na+] [MESNA, sodium 2-mercaptoethane sulfonate]",myofibroblast formation,myofibroblast formation,diminish myofibroblast formation
